From patent US7994313B2 (priority 2005, dated 2011)

Tests used:
[1] = molecular target: peripheral benzodiazepine receptor ("PBR") (Homo sapiens, UniProt P30536); details: cited from earlier work
[2] = system: central benzodiazepine receptor; details: cited from earlier work
[3] = molecular target: mitochondrial F1Fo-ATPase; details: cited from earlier work
[4] = Simulated gastric fluid solubility at 37° C.; type: physicochemical; details: versus solvated Bz-423
[5] = molecular target: T1, mitochondrial F0F1 ATPase (Homo sapiens, UniProt P48047); assay: ATP hydrolysis; type: biochemical; details: compared with solvated Bz-423 (FIG. 11)
[6] = molecular target: T1, mitochondrial F0F1 ATPase; assay: ATP synthesis; type: biochemical; details: compared with solvated Bz-423 (FIG. 12)
cells = assay: Cell viability; type: cell-based; details: compared with solvated Bz-423 (FIG. 13)
[7] = Water solubility at 37° C.; details: versus solvated Bz-423
rodents = details: two daily doses; cited from earlier work

peripheral benzodiazepine receptor ("PBR"), sequence (P30536 whole entry, species assumed): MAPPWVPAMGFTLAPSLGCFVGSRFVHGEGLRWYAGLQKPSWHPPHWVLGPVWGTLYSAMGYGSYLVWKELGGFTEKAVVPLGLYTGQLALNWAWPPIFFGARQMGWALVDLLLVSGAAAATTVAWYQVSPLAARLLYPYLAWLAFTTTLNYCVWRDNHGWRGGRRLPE

Structure (SMILES): CN1C(=O)C(Cc2ccc3ccccc3c2)N=C(c2ccc(O)cc2)c2cc(Cl)ccc21 (stereo not shown) [Bz-423]
- Kd [1]: ~1000 nM
- binding to the central benzodiazepine receptor [2]: prevents binding to the central benzodiazepine receptor
- Ki [3]: ~9000 nM

Structure (SMILES): CN1C(=O)C(Cc2ccc3ccccc3c2)N=C(c2ccc(O)cc2)c2cc(Cl)ccc21 (stereo not shown) [anhydrous BZ-423 ball milled]
- solubility in simulated gastric fluid, comparison in words [4]: more soluble than solvated Bz-423
- ATP hydrolysis [5]: capable of inhibiting ATP hydrolysis
- ATP synthesis [6]: not inhibiting cell synthesis
- cell viability (cells): not affecting cell viability
- water solubility, comparison in words [7]: more soluble than solvated Bz-423

Structure (SMILES): CC[C@H]1/C=C/C=C/C[C@@H](C)[C@H](O)[C@@](C)(O)C(=O)[C@@H](C)[C@H](O)[C@@H](C)C(=O)[C@@H](C)[C@H](O)[C@@H](C)/C=C/C(=O)O[C@@H]2[C@H](C)[C@H](CC1)O[C@]1(CC[C@H](C)[C@H](C[C@@H](C)O)O1)[C@H]2C [oligomycin, reference compound]
- IC50 [3]: 10 nM
- LD50 (rodents): 0.5 mg/kg
